According to the CheMixHub viscosity set:
Values joined by “and” are separate entries in the source; they are usually repeats but may differ in a detail not shown here. Equal entries are not always repeated.

Assay: xn = mol fraction of the nth substance listed

CCC(C)=O + CC(C)=O
viscosity [mPa·s], 101 kPa
Settings | x1 = 0.2 | x1 = 0.4 | x1 = 0.6 | x1 = 0.8
293.15 K | 0.334 | 0.35 | 0.365 | 0.381
313.15 K | 0.278 | 0.29 | 0.302 | 0.314

O=C(O)c1ccccc1 + CC(C)=O
viscosity, 101 kPa
Settings | 298.15 K | 303.15 K | 308.15 K | 313.15 K | 318.15 K
x1 = 0.201 | – | – | 0.6647 mPa·s | – | 0.5884 mPa·s
x1 = 0.2103 | 0.755 mPa·s | 0.7075 mPa·s | 0.6647 mPa·s | 0.6278 mPa·s | 0.5884 mPa·s
x1 = 0.213 | – | – | 0.6741 mPa·s | – | 0.5924 mPa·s
x1 = 0.229 | – | 0.7776 mPa·s | 0.7283 mPa·s and 0.7283 mPa·s | 0.6819 mPa·s | 0.6407 mPa·s and 0.6407 mPa·s
x1 = 0.247 | – | – | 0.75 mPa·s | – | 0.6571 mPa·s

CCCCCCCC(=O)OCC + CC(C)CCO
100 kPa
Settings | viscosity [mPa·s]
298.15 K, x1 = 0.3 | 1.885
308.15 K, x1 = 0.5001 | 1.315
313.15 K, x1 = 0.1 | 1.845

CCC(C)=O + CC(C)CO
viscosity [mPa·s], 101.3 kPa
Settings | x2 = 0.0854 | x2 = 0.1986 | x2 = 0.3001 | x2 = 0.3904 | x2 = 0.4974 | x2 = 0.5941 | x2 = 0.6983 | x2 = 0.7991 | x2 = 0.8965
298.15 K | 0.423 | 0.477 | 0.538 | 0.613 | 0.734 | 0.885 | 1.13 | 1.5 | 2.115
308.15 K | 0.38 | 0.426 | 0.476 | 0.535 | 0.63 | 0.748 | 0.933 | 1.206 | 1.637
318.15 K | 0.344 | 0.382 | 0.424 | 0.473 | 0.548 | 0.64 | 0.781 | 0.983 | 1.289

C1CCCCC1 + CC(C)O
303.15 K, 101.33 kPa
Settings | viscosity [mPa·s]
x2 = 0.098 | 0.8169
x2 = 0.2003 | 0.8387
x2 = 0.3097 | 0.8861
x2 = 0.3997 | 0.9325
x2 = 0.4969 | 0.9831
x2 = 0.6009 | 1.063
x2 = 0.7025 | 1.174
x2 = 0.8004 | 1.313

CCC(C)=O + CC(C)O
101 kPa
Settings | viscosity [mPa·s]
308.15 K, x1 = 0.1282 | 1.095
313.15 K, x1 = 0.0595 | 1.165

COC(C)=O + CC(C)O
298.15 K
Settings | viscosity [mPa·s]
101 kPa, x2 = 0.0988 | 0.385
101 kPa, x2 = 0.2003 | 0.416
101 kPa, x2 = 0.3227 | 0.453
101 kPa, x2 = 0.3967 | 0.484
101 kPa, x2 = 0.4976 | 0.53
101 kPa, x2 = 0.666 | 0.668
101 kPa, x2 = 0.7895 | 0.933
101 kPa, x2 = 0.7978 | 0.96
101 kPa, x2 = 0.9011 | 1.37
101.33 kPa, x1 = 0.0598 | 1.642
101.33 kPa, x1 = 0.1684 | 1.101
101.33 kPa, x1 = 0.2671 | 0.83
101.33 kPa, x1 = 0.3634 | 0.671
101.33 kPa, x1 = 0.4646 | 0.571
101.33 kPa, x1 = 0.5621 | 0.504
101.33 kPa, x1 = 0.6773 | 0.448
101.33 kPa, x1 = 0.7619 | 0.417
101.33 kPa, x1 = 0.866 | 0.394

O=C(O)c1ccccc1 + CC(C)O
viscosity [mPa·s], 101 kPa
Settings | x1 = 0.000601 | x1 = 0.00181 | x1 = 0.00276 | x1 = 0.0042 | x1 = 0.00508 | x1 = 0.005992
298.15 K | 2.579 | 2.574 | 2.569 | 2.562 | 2.559 | 2.556
308.15 K | 1.932 | 1.927 | 1.922 | 1.916 | 1.914 | 1.912
318.15 K | 1.496 | 1.49 | 1.486 | 1.481 | 1.479 | 1.477

CC(=O)C(=O)O + CC(C)[C@@H]1CC[C@@H](C)C[C@H]1O
100 kPa, x2 = 0.67
Settings | viscosity [mPa·s]
293.15 K | 44.64
298.15 K | 29.95
303.15 K | 21.24
308.15 K | 15.67
313.15 K | 11.88
318.15 K | 9.36
323.15 K | 7.511

COC(C)=O + CC(O)CO
Settings | viscosity [mPa·s]
298.15 K, 101 kPa, x1 = 0.251 | 12.35

COc1ccccc1N + CCC(=O)CC
viscosity [mPa·s], 100 kPa
Settings | x1 = 0.0991 | x1 = 0.1998 | x1 = 0.2865 | x1 = 0.3698 | x1 = 0.4502 | x1 = 0.5469 | x1 = 0.6601 | x1 = 0.7965 | x1 = 0.8805
303.15 K | 0.905 | 1.383 | 1.793 | 2.178 | 2.544 | 2.98 | 3.48 | 4.069 | 4.425
308.15 K | 0.85 | 1.3 | 1.681 | 2.038 | 2.379 | 2.784 | 3.249 | 3.796 | 4.123
313.15 K | 0.795 | 1.217 | 1.569 | 1.897 | 2.213 | 2.586 | 3.016 | 3.52 | 3.819

COc1ccccc1N + CCC(=O)O
viscosity [mPa·s], 100 kPa
Settings | x1 = 0.1097 | x1 = 0.183 | x1 = 0.2628 | x1 = 0.3502 | x1 = 0.4802 | x1 = 0.5897 | x1 = 0.6693 | x1 = 0.7549 | x1 = 0.8961
303.15 K | 1.402 | 1.697 | 2.017 | 2.367 | 2.884 | 3.317 | 3.631 | 3.967 | 4.518
308.15 K | 1.3 | 1.575 | 1.873 | 2.198 | 2.679 | 3.082 | 3.373 | 3.685 | 4.197
313.15 K | 1.197 | 1.452 | 1.727 | 2.028 | 2.472 | 2.844 | 3.113 | 3.401 | 3.873
318.15 K | 1.097 | 1.333 | 1.587 | 1.865 | 2.275 | 2.619 | 2.867 | 3.132 | 3.567
